Laboratory results from patent US5440016A, “Peptides of the formula (KFmoc) ZZZ and their uses” (priority 1993, dated 1995).
Square brackets hold non-standard residues; d marks the D form. Peptide text beside a SMILES is read from it. * marks the point of attachment. Phe(4-NO2) = N[C@@H](Cc1ccc([N+](=O)[O-])cc1)C(=O)O; Met(O2) = CS(=O)(=O)CC[C@H](N)C(=O)O; Fmoc = O=C(OCC1c2ccccc2-c2ccccc21)*; Orn = NCCC[C@H](N)C(=O)O; Thz = O=C(O)[C@@H]1CSCN1; Abu = CC[C@H](N)C(=O)O; Aib = CC(C)(N)C(=O)O; βAla = NCCC(=O)O

system: Human red blood cells (RBCs); test: Hemolytic activity; format: cell-based; details: Table 20, lower part
Experimental: Each assay was carried out in 96-well culture tissue plates. Four wells per plate contain 125 μl of a non-peptide positive control (1% Triton in de-ionized water), and four wells per plate contain 125 μl of a control blank, phosphate buffered saline (PBS). The hemolytic peptide melittin was used as comparative control. The controls served to detect possible contamination and to calculate the percent hemolysis of each peptide. Human red blood cells (RBCs) were washed with PBS and centrifuged to separate them from the serum. The cells were then resuspended in PBS to a final suspension of 0.5% RBC. 125 μl of this suspension was added to the peptides and controls solution. The release of hemoglobin resulting from the cell lysis was determined by measuring the OD at 414 nm of 100 μl of the supernatant.

In order of rising “HD50 (concentration necessary to lyse 50% of the cells)” value:
1. NCCCC[C@H](NC(=O)OCC1c2ccccc2-c2ccccc21)C(=O)N[C@@H](Cc1c[nH]c2ccccc12)C(=O)N[C@H](Cc1ccccc1)C(=O)N1CSC[C@H]1C(N)=O [(KFmoc)Wf(Thiopro)-NH2] (Fmoc-KW[dF][Thz]-NH2)  45 μg/m
2. NCCCC[C@H](NC(=O)OCC1c2ccccc2-c2ccccc21)C(=O)N[C@@H](Cc1c[nH]c2ccccc12)C(=O)N[C@H](Cc1ccccc1)C(=O)N[C@@H](CCCN)C(N)=O [(KFmoc)Wf(Orn)-NH2] (Fmoc-KW[dF][Orn]-NH2)  64 μg/m

same assay, conditions: Tables 18-21

In order of falling “HD50 (concentration necessary to lyse 50% of the cells)” value:
1. CC[C@@H](C)[C@@H](NC(=O)[C@@H](CS)NC(=O)[C@H](CCCCN)NC(=O)OCC1c2ccccc2-c2ccccc21)C(=O)N[C@@H](Cc1ccc([N+](=O)[O-])cc1)C(N)=O [(KFmoc)ci(NO2 F)-NH2] (Fmoc-K[dC][dI][Phe(4-NO2)]-NH2)  363 µg/mL
2. CC(C)C[C@H](NC(=O)[C@@H](Cc1ccccc1)NC(=O)[C@H](Cc1c[nH]c2ccccc12)NC(=O)[C@H](CCCCN)NC(=O)OCC1c2ccccc2-c2ccccc21)C(N)=O [(KFmoc)WfL-NH2] (Fmoc-KW[dF]L-NH2)  294 µg/mL
3. CC[C@H](C)[C@H](NC(=O)[C@@H](Cc1ccccc1)NC(=O)[C@H](Cc1c[nH]c2ccccc12)NC(=O)[C@H](CCCCN)NC(=O)OCC1c2ccccc2-c2ccccc21)C(N)=O [(KFmoc)WfI-NH2] (Fmoc-KW[dF]I-NH2)  208 µg/mL
4. N=C(N)NCCC[C@H](NC(=O)[C@@H](Cc1ccccc1)NC(=O)[C@H](Cc1c[nH]c2ccccc12)NC(=O)[C@H](CCCCN)NC(=O)OCC1c2ccccc2-c2ccccc21)C(N)=O [(KFmoc)WfR-NH2] (Fmoc-KW[dF]R-NH2)  122 µg/mL
5. CC[C@@H](C)[C@@H](NC(=O)[C@@H](CS)NC(=O)[C@H](CCCCN)NC(=O)OCC1c2ccccc2-c2ccccc21)C(=O)N[C@@H](CCCN)C(N)=O [(KFmoc)ci(Orn)-NH2] (Fmoc-K[dC][dI][Orn]-NH2)  77 µg/mL
6. NCCCC[C@H](NC(=O)OCC1c2ccccc2-c2ccccc21)C(=O)N[C@@H](Cc1c[nH]c2ccccc12)C(=O)N[C@H](Cc1ccccc1)C(=O)N[C@@H](Cc1ccc(O)cc1)C(N)=O [(KFmoc)WfY-NH2] (Fmoc-KW[dF]Y-NH2)  42 µg/mL
7. NCCCC[C@H](NC(=O)OCC1c2ccccc2-c2ccccc21)C(=O)N[C@@H](Cc1c[nH]c2ccccc12)C(=O)N[C@H](Cc1ccccc1)C(=O)N1CCC[C@H]1C(N)=O [(KFmoc)WfP-NH2] (Fmoc-KW[dF]P-NH2)  40 µg/mL
8. CC[C@@H](C)[C@@H](NC(=O)[C@@H](CS)NC(=O)[C@H](CCCCN)NC(=O)OCC1c2ccccc2-c2ccccc21)C(=O)N[C@@H](CCS(C)(=O)=O)C(N)=O [(KFmoc)ci(MetO2)-NH2] (Fmoc-K[dC][dI][Met(O2)]-NH2)  40 µg/mL
9. CC[C@@H](C)[C@@H](NC(=O)[C@@H](CS)NC(=O)[C@H](CCCCN)NC(=O)OCC1c2ccccc2-c2ccccc21)C(=O)NCCC(N)=O [(KFmoc)ci(Bala)-NH2] (Fmoc-K[dC][dI][βAla]-NH2)  37 µg/mL
10. NCCCC[C@H](NC(=O)OCC1c2ccccc2-c2ccccc21)C(=O)N[C@@H](Cc1c[nH]c2ccccc12)C(=O)N[C@H](Cc1ccccc1)C(=O)N[C@H](Cc1c[nH]c2ccccc12)C(N)=O [(KFmoc)Wfw-NH2] (Fmoc-KW[dF][dW]-NH2)  36 µg/mL
11. CC[C@H](NC(=O)[C@H](NC(=O)[C@@H](CS)NC(=O)[C@H](CCCCN)NC(=O)OCC1c2ccccc2-c2ccccc21)[C@H](C)CC)C(N)=O [(KFmoc)ci(aABA)-NH2] (Fmoc-K[dC][dI][Abu]-NH2)  29 µg/mL
12. CC[C@@H](C)[C@@H](NC(=O)[C@@H](CS)NC(=O)[C@H](CCCCN)NC(=O)OCC1c2ccccc2-c2ccccc21)C(=O)NC(C)(C)C(N)=O [(KFmoc)ci(aAIB)-NH2] (Fmoc-K[dC][dI][Aib]-NH2)  28 µg/mL
